Structures can show the parent of a compound that is named as a salt. Where no end group is shown, it is not given here.
system: SMN protein in SMA patient fibroblasts (GM03813); assay: SMN cytoblot assay (SMN protein levels in SMA patient fibroblasts); format: cell-based, human; conditions: not given
Source text: One method for monitoring SMN protein levels in cells is through use of a cytoblot assay, in which cells are fixed and probed with an antibody against a target protein of interest. We have used a cytoblot assay to determine the concentration of SMN protein in SMA patient fibroblasts, and have identified small molecules that increase SMN protein concentration.
Using the cytoblot assay, we can clearly distinguish SMN protein levels in patient (GM03813) versus carrier fibroblast cells (GM03814), as shown in the FIGS. 1A and 1B.
• 1. Plate 50 μl per well of 300,000 cells/ml (15,000 cells per well) into Nunc white 384-well opaque-bottomed plates. • 2. Incubate plates at 37° C., 5% CO2 overnight. Day 2 • 1. Aspirate media from wells using Tecan plate washer. • 2. Fix cells by adding 20 μl/well of cold methanol (kept in −20° C. freezer). • 3. Incubate plates in 4° C. refrigerator for 10 minutes. • 4. Aspirate methanol using Tecan plate washer. • 5. Add 50 μl/well of primary Ab solution, (BD anti-SMN Ab diluted to 125 ng/ml in 10% fetal goat serum PBST), using multi-drop. • 6. Seal plates and incubate overnight at room temperature. Day 3 • 1. After 16-20 hrs incubation, wash plates with PBST 2× using Tecan plate washer. • 2. Add 50 μl of secondary Ab solution, (Santa Cruz goat anti-Mouse-HRP diluted to 67 ng/ml in 10% fetal goat serum PBST). • 3. Seal plates and incubate 2 hrs at room temperature. • 4. Wash plates with PBST 2× using Tecan plate washer. • 5. Add 50 μl/well 10% fetal goat serum PBST. • 6. Incubate in 4° C. refrigerator for 10 minutes. • 7. Aspirate plates using plate washer and add ECL luminescence solution, 20 μl/well. • 8. Measure luminescence on plate reader. Automated Scoring
We scored each compound based on the maximum signal-to-noise ratio (SNR) found among its dose curves. These scores are based on edge-corrected SMN data, using only plates that passed quality control. The untreated level on each plate was found by taking the median of the untreated wells, and for each treated well we calculated a log(T/U) ratio. Each curve was generated in triplicate on each plate, so each point on a compound's dose curve was obtained by determining the median for the replicate points. Each ratio thus has an error estimate from the scatter between the triplicate data points (1.5 times the median absolute deviation from the median). For each dose curve, we calculated the SNR for each data point log(T/U)/error, and chose the maximum point as our indicator of SMN induction activity. Since this is a signal-to-noise score, scores much greater than one indicate significant activity, assuming normal statistics. We decided to use a cutoff signal-to-noise ratio of 6. This selection represents a considerable enrichment towards visually-selected compounds. We identified 100 out of 2000 compounds producing scores >6. This included 13 of the 28 visual selections.

Going from `C1CNCCN1.O=C(O)CC(O)(CC(=O)O)C(=O)O` [Piperazine Citrate] to Ferric Ammonium Citrate, the SNR rises from 6.68 to 19.4.

Compound Ferrous Sulfate has an SNR of 7.55.

same assay, conditions: maximum signal-to-noise ratio log(T/U)/error among a compound's dose curves, SMN cytoblot; cutoff 6; column Scoring says Automated or Visual selection

First: CCCN1C[C@H](CSC)C[C@@H]2c3cccc4[nH]cc(c34)C[C@H]21 [Pergolide Mesylate]
Second: CC(C)NCC(O)COc1cccc2ccccc12 (centres unmarked) [Propranolol Hydrochloride]
The SNR of the first is higher: 7.69 for the first, 7.38 for the second.

Compared with `CN1CCCN=C1/C=C/c1cccs1` [Pyrantel Pamoate], `CN(C)C(=O)Oc1ccc[n+](C)c1` [Pyridostigmine Bromide] is lower in SNR: 6.22 for the first, 6.19 for the second.

First: COC(=O)[C@H]1[C@H]2C[C@@H]3c4[nH]c5cc(OC)ccc5c4CCN3C[C@H]2C[C@@H](OC(=O)/C=C/c2cc(OC)c(OC)c(OC)c2)[C@@H]1OC [Rescinnamine]
Second: C=CCSC[C@H](N)C(=O)O [S-Allyl-L-Cysteine]
The SNR of the first is lower: 6.3 for the first, 9.02 for the second.

Compared with `S=[Se]=S` [Selenium Sulfide], `NCCc1c[nH]c2ccc(O)cc12` [Serotonin] is lower in SNR: 7.08 for the first, 6.15 for the second.

First: CN[C@@H]1[C@H](O)[C@H](NC)[C@H]2O[C@@]3(O)C(=O)C[C@@H](C)O[C@H]3O[C@@H]2[C@H]1O [Spectinomycin]
Second: O=c1[nH]c(=O)n(C2CCCO2)cc1F (centres unmarked) [Tegafur]
The SNR of the first is higher: 11 for the first, 6.74 for the second.

Compared with `CCN(CC)CCNC(=O)c1cc(S(C)(=O)=O)ccc1OC` [Tiapride], `C/C=C/c1ccc(OC)cc1` [Trans-Anethole] is lower in SNR: 10.5 for the first, 8.35 for the second.

First: C[C@H](CCC(=O)O)[C@H]1CC[C@H]2[C@@H]3[C@@H](O)C[C@@H]4C[C@H](O)CC[C@]4(C)[C@H]3CC[C@]12C [Ursodiol]
Second: CC[C@]12CCCN3CCc4c(n(c5ccccc45)[C@@](O)(C(=O)OC)C1)[C@@H]32 [Vincamine]
The SNR of the first is higher: 9.2 for the first, 6.94 for the second.

Compared with `CCCCCC(Br)C(=O)O` (stereo not drawn) [alpha-Bromohepyanoic acid], “Calcitonin (CGNLSTCMLGTYTQDFNKFHTFPQTAIGVGAP; ends and bridges not checked; cysteine pairing not given here; UniProt P01258 85-116, looked up)” is lower in SNR: 8.41 for the first, 7.46 for the second.

Compared with Chymopapain, Dibekacin Sulfate Salt is lower in SNR: 6.83 for the first, 6.79 for the second.

Compared with Gentamicin Sulfate, Neomycin Sulfate is lower in SNR: 14.9 for the first, 7.96 for the second.

First: Nonoxynol-9
Second: Teicoplanin
The SNR of the first is lower: 7 for the first, 9.72 for the second.

With “[2-(hexahydro-1 (2H)-azocinyl)ethyl]guanidine [Guanethidine Monosulfate]” the SNR was 11.3.

Reference: patent US20060286167A1, “Compositions and methods for the treatment of neurodegenerative diseases” (priority 2005, published 2006)
